Here are results for eight molecules from US7544835B2, “Carboxylic acid derivative and salt thereof” (Eisai R&D Management Co., Ltd., priority 2001, dated 2009).

The test relates to male db/db mice. Nature of the test: Blood glucose, triglyceride and non-esterified fatty acid reduction in db/db mice. In kind it is in vivo. As to conditions: Mus musculus, 216 h, oral once a day, day 9 after administration. On the procedure:
A chemical suspended in 0.5% methyl cellulose was orally administered via a sonde into male db/db mice (Nippon Charles River, Yokohama, JP) once a day (0.3 to 30 mg/kg/day). Before treatment and after 4 and 9 days treatment, blood was collected through a tail vein after the mice were fasted for 1 hour, respectively. On Day 10, an oral glucose loading test was conducted; in this test, the mice were fasted overnight from the previous day, and in the next morning, 2 g/kg glucose was given to the mice. Plasma glucose, triglycerides (TG), non-esterified fatty acid (NEFA) were measured by using commercial kits, that is, Glucose C-II Test Wako (trade name) (Wako Pure Chemical Industries, Ltd., Tokyo), Determiner L TG II (trade name) (Kyowa Medex, Tokyo) and NEFA C-Test Wako (Wako Pure Chemical Industries, Ltd., Tokyo), respectively.
The determined blood glucose reduction, blood triglyceride reduction and blood non-esterified fatty acid reduction at day 9 after administration are shown in Table 1.

Setting [1] is: read-out: Blood free fatty acid reduction (%).
Setting [2] is: read-out: Blood sugar reduction (%).
[3] abbreviates: read-out: Blood triglyceride reduction (%).

Read-outs that look alike come from different tables or passages of the source.

Consider `CC(C)OC(Cc1cccc(OCC#Cc2ccc(Cl)cc2Cl)c1)C(=O)O` (stereo not drawn) [Ex 100, 2-Isopropoxy-3-(3-[3-(2,4-dichlorophenyl)-2-propynyl]oxyphenyl)propanoic acid], for which the inhibition in vivo at 6 mg/kg is, setting by setting: under setting [1], 60.7%; under setting [2], 65.1%; under setting [3], 79.3%.
Taken in the same sequence, the figures for `CC(C)OC(Cc1cccc(C#C[C@]2(O)CC[C@@H](C(C)(C)C)CC2)c1)C(=O)O` (stereo partly drawn) [Ex 113, trans-3-(3-2-[4-t-Butyl-1-hydroxycyclohexyl]-1-ethynylphenyl)-2-isopropoxypropanoic acid] were 39.5%, 70% and 81.8%.
Taken in the same sequence, the figures for `C/C(=N\OCc1ccc(C(F)(F)F)cc1)c1cccc(CC(OC(C)C)C(=O)O)c1` (stereo not drawn) [Ex 132, 2-Isopropoxy-3-[3-([4-(trifluoromethyl)benzyl]-oxyethaneimidoyl)phenyl]propanoic acid] were 72.5%, 50.4% and 75.5%.
For `CC(C)O[C@@H](Cc1cccc(CNC(=O)OCc2ccc(OC(F)(F)F)cc2)c1)C(=O)O` [Ex 335, 2 (S)-Isopropoxy-3-{3-[(4-trifluoromethoxybenzyloxycarbonylamino)methyl]phenyl}-propanoic acid], the inhibition in vivo at 3 mg/kg by setting is: under setting [1], 40%; under setting [2], 57.2%; under setting [3], 81.4%.
`CC(C)O[C@@H](Cc1cccc(CNC(=O)OCc2cccc(OC(F)(F)F)c2)c1)C(=O)O` [Ex 344, 3-(3-{[3-Trifluoromethoxybenzyloxycarbonylamino]methyl}phenyl)-2(S)-isopropoxypropanoic acid]: the inhibition in vivo at 3 mg/kg is, setting by setting: under setting [1], 58.1%; under setting [2], 45.8%; under setting [3], 61.8%.
Consider `CC(C)O[C@@H](Cc1cccc(OC[C@H](O)COc2ccc(Cl)cc2)c1)C(=O)O` [Example 282, 3-(3-{2(R)-Hydroxy-3-[4-chlorophenoxy]propoxy}phenyl)-2(S)-isopropoxypropanoic acid], for which the inhibition in vivo at 3 mg/kg was 18.4% under setting [1], 17.9% under setting [2] and 59.7% under setting [3].
Taken in the same sequence, the figures for `CC(C)O[C@@H](Cc1cccc(OC[C@@H](F)COc2ccc(Cl)cc2Cl)c1)C(=O)O` [Example 320, 3-{3-[3-(2,4-Dichlorophenoxy)-2 (R)-fluoropropoxy]phenyl}-2(S)-isopropoxypropanoic acid] were 35.4%, 56.3% and 80.3%.
As to `CC(C)O[C@@H](Cc1cccc(OC[C@H](F)COc2ccc(Cl)cc2C#N)c1)C(=O)O` [Example 329, 3-{3-[3-(4-Chloro-2-cyanophenoxy)-2(S)-fluoropropoxy]phenyl}-2(S)-isopropoxypropanoic acid], the inhibition in vivo at 3 mg/kg is 47.5% under setting [1], 37.7% under setting [2] and 36.8% under setting [3].
